Measurements: PMC10536065 (ACS Omega, 2023)
“Also recorded” adds a separate entry of the source.

Experiments:
[1] = molecular target: T1, Type I collagen (Bos taurus, UniProt P02453+P02465); assay: ELISA saturation binding to collagen; design: species or system bovine
[2] = Circular dichroism spectroscopy; format: physicochemical; conditions: NaCl, MgCl2, CaCl2; 10 μM peptide
[3] = molecular target: T1, Type I collagen; assay: Inhibition of cCBD-LL37 binding to collagen by cCBD; design: species or system bovine; conditions: 500 nM cCBD-LL37 with 0–500 nM cCBD, 1 h room temperature; n = 4

T1 sequence (P02453 162-1217 limits assumed): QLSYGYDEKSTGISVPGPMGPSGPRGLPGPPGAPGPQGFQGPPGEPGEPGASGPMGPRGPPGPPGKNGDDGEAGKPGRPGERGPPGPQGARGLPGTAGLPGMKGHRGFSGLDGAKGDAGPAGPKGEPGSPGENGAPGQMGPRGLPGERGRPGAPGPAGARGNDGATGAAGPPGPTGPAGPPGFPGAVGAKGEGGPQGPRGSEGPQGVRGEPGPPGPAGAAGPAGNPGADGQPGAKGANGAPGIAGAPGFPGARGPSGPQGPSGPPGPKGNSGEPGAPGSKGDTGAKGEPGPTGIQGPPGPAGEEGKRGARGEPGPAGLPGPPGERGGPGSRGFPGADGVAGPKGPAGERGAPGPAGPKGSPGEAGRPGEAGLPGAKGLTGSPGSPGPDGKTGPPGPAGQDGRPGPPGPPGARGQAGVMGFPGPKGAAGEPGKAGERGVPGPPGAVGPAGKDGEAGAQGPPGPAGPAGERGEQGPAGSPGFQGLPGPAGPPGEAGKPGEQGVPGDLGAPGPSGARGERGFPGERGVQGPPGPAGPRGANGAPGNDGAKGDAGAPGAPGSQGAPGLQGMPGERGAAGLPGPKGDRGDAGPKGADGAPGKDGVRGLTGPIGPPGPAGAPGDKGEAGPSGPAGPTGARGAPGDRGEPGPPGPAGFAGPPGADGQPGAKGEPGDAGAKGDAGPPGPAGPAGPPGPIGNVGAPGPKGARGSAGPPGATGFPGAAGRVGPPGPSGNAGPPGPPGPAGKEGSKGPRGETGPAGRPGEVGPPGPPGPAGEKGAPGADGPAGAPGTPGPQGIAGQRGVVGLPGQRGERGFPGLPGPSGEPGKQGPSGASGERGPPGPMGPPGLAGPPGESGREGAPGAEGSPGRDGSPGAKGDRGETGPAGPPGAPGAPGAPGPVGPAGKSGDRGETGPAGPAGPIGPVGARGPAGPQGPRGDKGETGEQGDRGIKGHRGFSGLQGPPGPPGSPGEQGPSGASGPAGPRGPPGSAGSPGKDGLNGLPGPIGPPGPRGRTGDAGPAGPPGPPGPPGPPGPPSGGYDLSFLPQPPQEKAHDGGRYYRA
T1 sequence (P02465 80-1117 limits assumed): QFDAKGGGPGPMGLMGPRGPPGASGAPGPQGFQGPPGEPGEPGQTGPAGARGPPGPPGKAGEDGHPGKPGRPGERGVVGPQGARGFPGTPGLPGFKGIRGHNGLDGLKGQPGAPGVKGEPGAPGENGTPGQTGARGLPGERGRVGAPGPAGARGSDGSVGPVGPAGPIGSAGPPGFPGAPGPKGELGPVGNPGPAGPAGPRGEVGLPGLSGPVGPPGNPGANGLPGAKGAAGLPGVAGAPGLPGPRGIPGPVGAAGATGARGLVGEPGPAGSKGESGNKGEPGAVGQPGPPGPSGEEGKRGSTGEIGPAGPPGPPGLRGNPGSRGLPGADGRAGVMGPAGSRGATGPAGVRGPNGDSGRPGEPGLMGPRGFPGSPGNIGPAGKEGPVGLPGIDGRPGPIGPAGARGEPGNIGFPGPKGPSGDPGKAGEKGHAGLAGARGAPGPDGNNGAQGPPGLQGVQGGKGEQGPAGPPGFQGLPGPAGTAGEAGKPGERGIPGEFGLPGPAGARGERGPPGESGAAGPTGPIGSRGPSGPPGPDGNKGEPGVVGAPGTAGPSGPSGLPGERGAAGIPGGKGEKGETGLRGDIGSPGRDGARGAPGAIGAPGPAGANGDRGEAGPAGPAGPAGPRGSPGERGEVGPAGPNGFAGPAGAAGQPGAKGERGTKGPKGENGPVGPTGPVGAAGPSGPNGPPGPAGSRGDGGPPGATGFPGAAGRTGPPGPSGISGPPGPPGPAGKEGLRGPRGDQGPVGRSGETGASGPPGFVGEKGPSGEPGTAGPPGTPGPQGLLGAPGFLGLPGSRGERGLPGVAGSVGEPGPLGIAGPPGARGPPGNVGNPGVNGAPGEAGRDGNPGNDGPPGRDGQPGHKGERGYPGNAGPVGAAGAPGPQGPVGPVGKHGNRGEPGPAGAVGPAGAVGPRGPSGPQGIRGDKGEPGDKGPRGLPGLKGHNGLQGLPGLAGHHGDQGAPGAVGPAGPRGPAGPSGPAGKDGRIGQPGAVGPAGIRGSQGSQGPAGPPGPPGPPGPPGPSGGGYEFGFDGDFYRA

| Compound | Kd [1] [nM] | structural stability at varying ionic strengths compared with LL37 [2] | inhibition of cCBD-LL37 binding to collagen by excess cCBD [3] |
| --- | --- | --- | --- |
| CC[C@H](C)[C@H](NC(=O)[C@H](CCCCN)NC(=O)[C@H](CCC(=O)O)NC(=O)[C@H](CCCCN)NC(=O)[C@H](CO)NC(=O)[C@H](CCCCN)NC(=O)[C@H](CCCNC(=N)N)NC(=O)[C@H](Cc1ccccc1)NC(=O)[C@H](Cc1ccccc1)NC(=O)[C@H](CC(=O)O)NC(=O)CNC(=O)[C@H](CC(C)C)NC(=O)[C@@H](N)CC(C)C)C(=O)NCC(=O)N[C@@H](CCCCN)C(=O)N[C@@H](CCC(=O)O)C(=O)N[C@@H](Cc1ccccc1)C(=O)N[C@@H](CCCCN)C(=O)N[C@@H](CCCNC(=N)N)C(=O)N[C@H](C(=O)N[C@H](C(=O)N[C@@H](CCC(N)=O)C(=O)N[C@@H](CCCNC(=N)N)C(=O)N[C@H](C(=O)N[C@@H](CCCCN)C(=O)N[C@@H](CC(=O)O)C(=O)N[C@@H](Cc1ccccc1)C(=O)N[C@@H](CC(C)C)C(=O)N[C@@H](CCCNC(=N)N)C(=O)N[C@@H](CC(N)=O)C(=O)N[C@@H](CC(C)C)C(=O)N[C@H](C(=O)N1CCC[C@H]1C(=O)N[C@@H](CCCNC(=N)N)C(=O)N[C@H](C(=O)N[C@@H](CCC(=O)O)C(=O)N[C@@H](CO)C(=O)O)[C@@H](C)O)C(C)C)[C@@H](C)CC)C(C)C)[C@@H](C)CC [LL37, reference compound] | 80 | – | – |
| CC[C@H](C)[C@H](NC(=O)[C@H](CCCCN)NC(=O)[C@H](CCC(=O)O)NC(=O)[C@H](CCCCN)NC(=O)[C@H](CO)NC(=O)[C@H](CCCCN)NC(=O)[C@H](CCCNC(=N)N)NC(=O)[C@H](Cc1ccccc1)NC(=O)[C@H](Cc1ccccc1)NC(=O)[C@H](CC(=O)O)NC(=O)CNC(=O)[C@H](CC(C)C)NC(=O)[C@@H](N)CC(C)C)C(=O)NCC(=O)N[C@@H](CCCCN)C(=O)N[C@@H](CCC(=O)O)C(=O)N[C@@H](Cc1ccccc1)C(=O)N[C@@H](CCCCN)C(=O)N[C@@H](CCCNC(=N)N)C(=O)N[C@H](C(=O)N[C@H](C(=O)N[C@@H](CCC(N)=O)C(=O)N[C@@H](CCCNC(=N)N)C(=O)N[C@H](C(=O)N[C@@H](CCCCN)C(=O)N[C@@H](CC(=O)O)C(=O)N[C@@H](Cc1ccccc1)C(=O)N[C@@H](CC(C)C)C(=O)N[C@@H](CCCNC(=N)N)C(=O)N[C@@H](CC(N)=O)C(=O)N[C@@H](CC(C)C)C(=O)N[C@H](C(=O)N1CCC[C@H]1C(=O)N[C@@H](CCCNC(=N)N)C(=O)N[C@H](C(=O)N[C@@H](CCC(=O)O)C(=O)N[C@@H](CO)C(=O)N[C@@H](CC(=O)O)C(=O)N[C@@H](Cc1ccc(O)cc1)C(=O)N[C@@H](CCCCN)C(=O)N[C@@H](CC(=O)O)C(=O)N[C@@H](CC(=O)O)C(=O)N[C@@H](CC(=O)O)C(=O)N[C@@H](CC(=O)O)C(=O)N[C@@H](CCCCN)C(=O)N[C@H](C(=O)N[C@@H](CCCCN)C(=O)N[C@@H](CCCCN)C(=O)N[C@H](C(=O)N[C@@H](CC(C)C)C(=O)N[C@@H](CCCNC(=N)N)C(=O)N[C@H](C(=O)O)[C@@H](C)O)[C@@H](C)O)[C@@H](C)O)[C@@H](C)O)C(C)C)[C@@H](C)CC)C(C)C)[C@@H](C)CC [cCBD-LL37] | 49 | stronger structural stability at varying ionic strengths when compared with LL37 | – |
| DYKDDDDKTKKTLRT [cCBD] | – | – | significantly (*p < 0.05) inhibited cCBD-LL37 binding to collagen; also recorded: inhibited cCBD-LL37 binding to collagen but did not completely abrogate the binding |
